Data: patent US4214091A, “Antibiotic No. 2-200 and process for producing thereof” (Chugai Seiyaku Kabushiki Kaisha, priority 1977, dated 1980)
In brackets after ≈: the same amount, converted by molar mass. Like-named read-outs stand apart in the source and are kept apart here.

Tests used:
gram negative bacteria = assay: antibacterial activity (general statement); assay type: cell-based
mammals = settings: in vivo
[1] = system: bacteria of genus Serratia; assay: antibacterial activity (general statement); assay type: cell-based
[2] = system: Salmonella enteritidis T-1; assay: MIC by agar plate dilution method; assay type: cell-based; settings: Salmonella enterica, 24 h, 37° C., read-out: Minimum inhibitory concentration
Description: (§1) The test organisms were incubated by agar plate dilution method at 37° C. for 24 hours, after which their growth was observed. The test organisms were incubated on an NB medium (product of Eiken Kagaku) at 37° C. overnight, and each culture obtained was diluted 10^3 - to 10^4 -fold and stamped on an agar plate. The following agar plate media were used:
(§2) NA: nutrient agar (product of Eiken Kagaku)
(§3) NA+G6P: glucose-6-phosphoric acid (50 μg/ml) plus nutrient agar
(§4) Anti-3A: antibiotic medium No. 3 agar (product of Difco)
(§5) MHA: Mueller Hinton Agar (product of Eiken Kagaku)

Bacillus thuringensis = assay: MIC by agar plate dilution method; assay type: cell-based; settings: 24 h, 37° C., read-out: Minimum inhibitory concentration
Description: as §1, §2, §3, §4, §5

[3] = system: Staphylococcus epidermidis T0-3; assay: MIC by agar plate dilution method; assay type: cell-based; settings: T03, 24 h, 37° C., read-out: Minimum inhibitory concentration
Description: as §1, §2, §3, §4, §5

Escherichia coli NIHJ = assay: MIC by agar plate dilution method; assay type: cell-based; settings: 24 h, 37° C., read-out: Minimum inhibitory concentration
Description: as §1, §2, §3, §4, §5

[4] = system: Klebsiella pneumoniae 15c; assay: MIC by agar plate dilution method; assay type: cell-based; settings: 24 h, read-out: Minimum inhibitory concentration
Description: as §1, §2, §3, §4, §5

Sarcina lutea = assay: MIC by agar plate dilution method; assay type: cell-based; settings: Micrococcus luteus
Description: as §1, §2, §3, §4, §5

[5] = system: Bacillus subtilis PCI-219; assay: MIC by agar plate dilution method; assay type: cell-based; settings: 37° C., 24 hours
Description: as §1, §2, §3, §4, §5

Escherichia coli No. 9 = assay: MIC by agar plate dilution method; assay type: cell-based; settings: NO.9, 24 h, 37° C., read-out: Minimum inhibitory concentration
Description: as §1, §2, §3, §4, §5

Shigella flexneri 2b = assay: MIC by agar plate dilution method; assay type: cell-based; settings: 24 h, 37° C., read-out: Minimum inhibitory concentration
Description: as §1, §2, §3, §4, §5

[6] = system: Pseudomonas aeruginosa J-272; assay: MIC by agar plate dilution method; assay type: cell-based; settings: 37° C., 24 hours
Description: as §1, §2, §3, §4, §5

Salmonella paratyphi A = assay: MIC by agar plate dilution method; assay type: cell-based; settings: Salmonella enterica, 24 h
Description: as §1, §2, §3, §4, §5

[7] = system: Serratia marrcescens FU-111; assay: MIC by agar plate dilution method; assay type: cell-based; settings: FU111, 24 h, read-out: Minimum inhibitory concentration
Description: as §1, §2, §3, §4, §5

Salmonella typhi TANAKA = assay: MIC by agar plate dilution method; assay type: cell-based; settings: Salmonella enterica, 24 h
Description: as §1, §2, §3, §4, §5

Proteus mirabilis 1287 = assay: MIC by agar plate dilution method; assay type: cell-based; settings: 37° C., 24 hours
Description: as §1, §2, §3, §4, §5

[8] = system: Pseudomonas aeruginosa G-75; assay: MIC by agar plate dilution method; assay type: cell-based; settings: 37° C., 24 hours
Description: as §1, §2, §3, §4, §5

[9] = system: Serratia marrcescens T-50; assay: MIC by agar plate dilution method; assay type: cell-based; settings: for MIC: Serratia
Description: as §1, §2, §3, §4, §5

Proteus mirabilis 9' = assay: MIC by agar plate dilution method; assay type: cell-based; settings: 24 h, 37° C., read-out: Minimum inhibitory concentration
Description: as §1, §2, §3, §4, §5

Bacillus cereus = assay: MIC by agar plate dilution method; assay type: cell-based; settings: 37° C., 24 hours
Description: as §1, §2, §3, §4, §5

[10] = system: Staphylococcus aureus 222; assay: MIC by agar plate dilution method; assay type: cell-based; settings: Staphylococcus aureus, 222, 24 h, 37° C., read-out: Minimum inhibitory concentration
Description: as §1, §2, §3, §4, §5

[11] = system: Staphylococcus aureus A-5; assay: MIC by agar plate dilution method; assay type: cell-based; settings: A5, 24 h, 37° C., read-out: Minimum inhibitory concentration
Description: as §1, §2, §3, §4, §5

[12] = system: Staphylococcus aureus JU-5; assay: MIC by agar plate dilution method; assay type: cell-based; settings: JU5, 24 h, 37° C., read-out: Minimum inhibitory concentration
Description: as §1, §2, §3, §4, §5

[13] = NA + G6P (50 μg/ml), 37° C., 24 hours
[14] = read-out: Minimum inhibitory concentration, Anti-3A, 37° C.
[15] = read-out: Minimum inhibitory concentration, MHA, 37° C.
[16] = read-out: Minimum inhibitory concentration, NA + G6P (50 μg/ml), 37° C.
[17] = read-out: Minimum inhibitory concentration, NA, 37° C.

SMILES: C=CC(C)=CC1(C)SC(=O)C(C)=C1O (single isomer, unassigned) [No. 2-200]
- antibacterial activity to gram negative bacteria (gram negative bacteria): exhibits antibacterial activity
- delayed toxicity (general statement) (mammals): no delayed toxicity
- antibacterial activity to bacteria of genus Serratia [1]: particularly strong antibacterial activity
- MIC ([2]; Anti-3A): 3.12 µg/mL (≈ 14.8 µM)
- MIC ([2]; MHA): 3.12 µg/mL (≈ 14.8 µM)
- MIC ([2]; NA + G6P (50 μg/ml)): 6.25 µg/mL
- MIC ([2]; NA): 6.25 µg/mL (≈ 29.7 µM)
- MIC (Bacillus thuringensis; Anti-3A): 50 µg/mL (≈ 238 µM)
- MIC (Bacillus thuringensis; MHA): 50 µg/mL (≈ 238 µM)
- MIC (Bacillus thuringensis; NA + G6P (50 μg/ml)): 25 µg/mL
- MIC (Bacillus thuringensis; NA): 50 µg/mL (≈ 238 µM)
- MIC ([3]; Anti-3A): 100 µg/mL (≈ 476 µM)
- MIC ([3]; MHA): 50 µg/mL (≈ 238 µM)
- MIC ([3]; NA + G6P (50 μg/ml)): 50 µg/mL
- MIC ([3]; NA): 50 µg/mL (≈ 238 µM)
- MIC (Escherichia coli NIHJ; Anti-3A): 200 µg/mL (≈ 951 µM)
- MIC (Escherichia coli NIHJ; MHA): 50 µg/mL (≈ 238 µM)
- MIC (Escherichia coli NIHJ; NA + G6P (50 μg/ml)): 100 µg/mL
- MIC (Escherichia coli NIHJ; NA): 200 µg/mL (≈ 951 µM)
- MIC ([4]; Anti-3A, 37° C., 24 hours): 50 µg/mL (≈ 238 µM)
- MIC [4, 13]: 100 µg/mL
- MIC ([4]; NA, 37° C., 24 hours): 100 µg/mL (≈ 476 µM)
- MIC [4]: 12.5 µg/mL (≈ 59.4 µM)
- MIC (Sarcina lutea; 24 h, read-out: Minimum inhibitory concentration, Anti-3A, 37° C.): 12.5 µg/mL (≈ 59.4 µM)
- MIC (Sarcina lutea; 24 h, read-out: Minimum inhibitory concentration, NA + G6P (50 μg/ml), 37° C.): 12.5 µg/mL
- MIC (Sarcina lutea; 24 h, read-out: Minimum inhibitory concentration, NA, 37° C.): 12.5 µg/mL (≈ 59.4 µM)
- MIC (Sarcina lutea; MHA, 37° C., 24 hours, read-out: Minimum inhibitory concentration): 25 µg/mL (≈ 119 µM)
- Minimum inhibitory concentration ([5]; Anti-3A): 50 µg/mL (≈ 238 µM)
- MIC ([5]; Bacillus subtilis, PCI219, NA, read-out: Minimum inhibitory concentration): 50 µg/mL (≈ 238 µM)
- Minimum inhibitory concentration ([5]; MHA): 50 µg/mL (≈ 238 µM)
- Minimum inhibitory concentration ([5]; NA + G6P (50 μg/ml)): 50 µg/mL
- MIC (Escherichia coli No. 9; Anti-3A): 100 µg/mL (≈ 476 µM)
- MIC (Escherichia coli No. 9; MHA): 50 µg/mL (≈ 238 µM)
- MIC (Escherichia coli No. 9; NA + G6P (50 μg/ml)): 50 µg/mL
- MIC (Escherichia coli No. 9; NA): 50 µg/mL (≈ 238 µM)
- MIC (Shigella flexneri 2b; Anti-3A): 3.12 µg/mL (≈ 14.8 µM)
- MIC (Shigella flexneri 2b; MHA): 1.56 µg/mL (≈ 7.42 µM)
- MIC (Shigella flexneri 2b; NA + G6P (50 μg/ml)): 6.25 µg/mL
- MIC (Shigella flexneri 2b; NA): 6.25 µg/mL (≈ 29.7 µM)
- Minimum inhibitory concentration ([6]; Anti-3A): > 400 µg/mL
- Minimum inhibitory concentration ([6]; MHA): > 400 µg/mL
- Minimum inhibitory concentration ([6]; NA + G6P (50 μg/ml)): > 400 µg/mL
- MIC ([6]; Pseudomonas aeruginosa, J272, NA, read-out: Minimum inhibitory concentration): > 400 µg/mL
- MIC (Salmonella paratyphi A; [14]): 50 µg/mL (≈ 238 µM)
- MIC (Salmonella paratyphi A; [15]): 3.12 µg/mL (≈ 14.8 µM)
- MIC (Salmonella paratyphi A; [16]): 50 µg/mL
- MIC (Salmonella paratyphi A; [17]): 50 µg/mL (≈ 238 µM)
- MIC ([7]; Anti-3A, 37° C., 24 hours): 25 µg/mL (≈ 119 µM)
- MIC [7, 13]: 50 µg/mL
- MIC ([7]; NA, 37° C., 24 hours): 50 µg/mL (≈ 238 µM)
- MIC [7]: 6.25 µg/mL (≈ 29.7 µM)
- MIC (Salmonella typhi TANAKA; [14]): 12.5 µg/mL (≈ 59.4 µM)
- MIC (Salmonella typhi TANAKA; [15]): 3.12 µg/mL (≈ 14.8 µM)
- MIC (Salmonella typhi TANAKA; [16]): 12.5 µg/mL
- MIC (Salmonella typhi TANAKA; [17]): 12.5 µg/mL (≈ 59.4 µM)
- Minimum inhibitory concentration (Proteus mirabilis 1287; Anti-3A): 50 µg/mL (≈ 238 µM)
- Minimum inhibitory concentration (Proteus mirabilis 1287; MHA): 50 µg/mL (≈ 238 µM)
- Minimum inhibitory concentration (Proteus mirabilis 1287; NA + G6P (50 μg/ml)): 50 µg/mL
- MIC (Proteus mirabilis 1287; Proteus mirabilis, 1287, NA, read-out: Minimum inhibitory concentration): 50 µg/mL (≈ 238 µM)
- Minimum inhibitory concentration ([8]; Anti-3A): 6.25 µg/mL (≈ 29.7 µM)
- Minimum inhibitory concentration ([8]; MHA): 6.25 µg/mL (≈ 29.7 µM)
- Minimum inhibitory concentration ([8]; NA + G6P (50 μg/ml)): 6.25 µg/mL
- MIC ([8]; Pseudomonas aeruginosa, G75, NA, read-out: Minimum inhibitory concentration): 6.25 µg/mL (≈ 29.7 µM)
- Minimum inhibitory concentration [9, 13]: 50 µg/mL
- MIC ([9]; T50, 24 h, read-out: Minimum inhibitory concentration, Anti-3A, 37° C.): 12.5 µg/mL (≈ 59.4 µM)
- MIC ([9]; T50, 24 h, read-out: Minimum inhibitory concentration, MHA, 37° C.): 1.56 µg/mL (≈ 7.42 µM)
- MIC ([9]; T50, NA, 37° C., 24 hours, read-out: Minimum inhibitory concentration): 50 µg/mL (≈ 238 µM)
- MIC (Proteus mirabilis 9'; Anti-3A): 100 µg/mL (≈ 476 µM)
- MIC (Proteus mirabilis 9'; MHA): 200 µg/mL (≈ 951 µM)
- MIC (Proteus mirabilis 9'; NA + G6P (50 μg/ml)): 50 µg/mL
- MIC (Proteus mirabilis 9'; NA): 50 µg/mL (≈ 238 µM)
- Minimum inhibitory concentration (Bacillus cereus; Anti-3A): 50 µg/mL (≈ 238 µM)
- MIC (Bacillus cereus; Bacillus cereus, NA, read-out: Minimum inhibitory concentration): 50 µg/mL (≈ 238 µM)
- Minimum inhibitory concentration (Bacillus cereus; MHA): 50 µg/mL (≈ 238 µM)
- Minimum inhibitory concentration (Bacillus cereus; NA + G6P (50 μg/ml)): 50 µg/mL
- MIC ([10]; Anti-3A): > 400 µg/mL
- MIC ([10]; MHA): 100 µg/mL (≈ 476 µM)
- MIC ([10]; NA + G6P (50 μg/ml)): ≥ 400 µg/mL
- MIC ([10]; NA): > 400 µg/mL
- MIC ([11]; Anti-3A): 25 µg/mL (≈ 119 µM)
- MIC ([11]; MHA): 50 µg/mL (≈ 238 µM)
- MIC ([11]; NA + G6P (50 μg/ml)): 25 µg/mL
- MIC ([11]; NA): 50 µg/mL (≈ 238 µM)
- MIC ([12]; Anti-3A): > 400 µg/mL
- MIC ([12]; MHA): 100 µg/mL (≈ 476 µM)
- MIC ([12]; NA + G6P (50 μg/ml)): ≥ 400 µg/mL
- MIC ([12]; NA): > 400 µg/mL
